Assays:
Type in all cases: physicochemical
[1] = Coloring and bleaching behaviour; conditions: for bleaching: room temperature
[2] = Fade rate (T 1/2) of naphthopyran imbibed into polymerizate after UV activation; conditions: At Room Temperature; imbibed in poly[diethylene glycol bis(allyl carbonate)]; UV 365 nm lamp
Source text: (§1) The naphthopyran compounds of Examples 1-11 were imbibed into separate polymerizates of poly[diethylene glycol bis(allyl carbonate)]. On exposure to ultraviolet light from a 365 nm lamp, the imbibed polymer samples elicited a photochromic response which faded on removal of the UV light source.
^1. At Room Temperature

[3] = Absorption maximum of naphthopyran imbibed into polymerizate; conditions: imbibed in poly[diethylene glycol bis(allyl carbonate)]; UV 365 nm lamp
Source text: as §1

## C1=CC(c2ccccc2)(c2ccccc2)Oc2c1ccc1ccccc21 [2,2-diphenyl-2H-naphtho[1,2-b] pyrin]
[1]
  color change on exposure to near ultraviolet: colors on exposure to near ultraviolet light at room temperature
  bleaching: does not bleach in a reasonable period of time

## C1=CC(c2ccccc2)(c2ccccc2)Oc2ccc3ccccc3c21 [3,3-diphenyl-3H-naphtho[2,1-b]pyran]
[1]
  color change on exposure to near ultraviolet: change color on exposure to the near ultraviolet
  bleaching: bleaches too rapidly for use in an ophthalmic lens

## CC(=O)Oc1cc2ccccc2c2c1OC(c1ccccc1)(c1ccccc1)C=C2 [Example 1, 5-acetoxy-3,3-diphenyl-3H-naphtho[2,1-b]pyran]
[2]
  Fade Rate T 1/2: 1.35 min
[3]
  Absorption λ Max: 455 NM

## C1=CC(c2ccccc2)(c2ccccc2)Oc2c(Oc3ccccn3)cc3ccccc3c21 [Example 2, 5(2-pyridyloxy)-3,3-diphenyl-3H naphtho[2,1-b]pyran]
[2]
  Fade Rate T 1/2: 1.57 min
[3]
  Absorption λ Max: 440 NM

## COc1ccc(C2(c3ccccc3)C=Cc3c(c(OC(C)=O)cc4ccccc34)O2)cc1 (stereo not drawn) [Example 3, 5-acetoxy-3-phenyl-3-p-methoxy phenyl-3H-naphtho[2,1-b]pyran]
[2]
  Fade Rate T 1/2: 1.05 min
[3]
  Absorption λ Max: 483 NM

## COc1ccc(C2(c3ccccc3)C=Cc3c(c(OC(=O)c4ccccc4)cc4ccccc34)O2)cc1 (stereo not drawn) [Example 4, 5-benzoyloxy-3-phenyl-3-p-methoxy phenyl-3H-naphtho[2,1-b]pyran]
[2]
  Fade Rate T 1/2: 3.5 min
[3]
  Absorption λ Max: 483 NM

## O=C(Oc1cc2ccccc2c2c1OC(c1ccccc1)(c1ccccc1)C=C2)c1ccccc1 [Example 5, 5-benzoyloxy-3,3-diphenyl-3H-naphtho[2,1-b]pyran]
[2]
  Fade Rate T 1/2: 2.3 min
[3]
  Absorption λ Max: 447 NM

## CNC(=O)Oc1cc2ccccc2c2c1OC(c1ccccc1)(c1ccccc1)C=C2 [Example 6, 5-methylcarbamyloxy-3,3-diphenyl-3H-naphtho[2,1-b]pyran]
[2]
  Fade Rate T 1/2: 1.67 min
[3]
  Absorption λ Max: 446 NM

## CC(=O)COc1cc2ccccc2c2c1OC(c1ccccc1)(c1ccccc1)C=C2 [Example 8, 5-(2-acetonyloxy)-3,3-diphenyl-3H-naphtho[2,1-b]pyran]
[2]
  Fade Rate T 1/2: 1.6 min
[3]
  Absorption λ Max: 434 NM

## CC(=O)Oc1cc2ccccc2c2c1OC(c1ccc(C)cc1)(c1ccc(C)cc1)C=C2 [Example 9, 5-acetoxy-3,3-di(p-methylphenyl)-3H-naphtho[2,1-b]pyran]
[2]
  Fade Rate T 1/2: 2.23 min
[3]
  Absorption λ Max: 470 NM

## O=C(CCl)Oc1cc2ccccc2c2c1OC(c1ccccc1)(c1ccccc1)C=C2 [Example 10, 5-chloroacetoxy-3,3-diphenyl-3H-naphtho[2,1-b]pyran]
[2]
  Fade Rate T 1/2: 1.6 min
[3]
  Absorption λ Max: 458 NM

## Cc1ccc(C2(c3ccc(C)cc3)C=Cc3c(c(OC(=O)CCl)cc4ccccc34)O2)cc1 [Example 11, 5-chloroacetoxy-3,3-p-methylphenyl-3H-naphtho[2,1-b]pyran]
[2]
  Fade Rate T 1/2: 1.75 min
[3]
  Absorption λ Max: 476 NM

Reference: patent publication US5244602A, “Photochromic naphthopyrans” (PPG Industries, Inc., priority 1990, dated 1993)
